Data as given in patent US12012375B2, “Prostaglandin F2 alpha derivatives for decreasing intraocular pressure” (GURUS BIOPHARM LIMITED LIABILITY COMPANY, priority 2018, dated 2024).

Legend:
3T3-L1 cells [1] = test: Cytotoxicity, MTT assay of cell survival; format: cell-based; settings: cultivated mice 3T3-L1 cells, 24 hours incubation
Protocol: (§1) 3T3-L1 cells were incubated at 95% humidity, in the 5% CO2 atmosphere, at 37° C. Cultivation was performed in DMEM medium comprising 7% FCS, 2 mM of glutamine, 100 U/ml of penicillin, 100 μg/ml of streptomycin and 0.25 μg/ml of amphotericin B. Cells were subcultured every 48-72 hours. For the purpose of suspending the cells were incubated in Versene's solution within 1 minute and in Trypsin-EDTA solution within 1 minute (0.25%).
(§2) Cells were inoculated by 30 thousand into wells of 96-well plate (monolayer) in 100 μl of medium for MTT-test. After 24 hours of cultivation 100 μl of test substances in the medium used for cell culture were added to the cells with replacement of culture medium with a new one. Cells were incubated with test substances for 24 hours. Cells, to which 100 μl of medium used for cell culture were added to, were used as […].
(§3) Assessment of cell survival in the culture using the MTT assay After the incubation, the medium was removed from each well, and then 100 μl of MTT solution were added to each well (0.5 mg/ml of MTT, 3.5 mg/ml of D-glucose in Hanks' solution). The plate was placed into CO2-incubator (Ependorf, Germany) for 1.5 h. After that, MTT was removed and 100 μl of DMSO were added to each well and mixed for 2 minutes in a shaker at 550 rpm. Then, the solution optical density was determined at the wavelength of 576 nm and 620 nm using a plate reader (EFOS 9305, OAO MZ Sapphir).

3T3-L1 cells [2] = test: Nitric oxide generation (modified Griess method); format: cell-based, mice; settings: for NO generation, % to control: mice 3T3-L1 cells, concentration of 100 μM, 20 hours
Protocol: as §1, with “solution within 2-3 minutes and in” for “solution within 1 minute and in”, “Trypsin-EDTA solution (0.25%).” for “Trypsin-EDTA solution within 1 minute (0.25%).”
Cells were inoculated by 30 thousand into wells (monolayer) of 96-well plate in 100 μl of medium. Incubation with substances lasted 20 hours. After that, medium aliquot was sampled from each well, and NO concentration was determined by modified Griess method. 12.5 μl of 0.04% sulfanilamide water solution were added to 75 μl of test medium in wells of 96-well plate for EIA, held within 10 minutes at room temperature protected from light, then, 12.5 μl of 2% naphthylethylenediamine solution in 3M of HCl were added, held again for 10 minutes at room temperature protected from light, then the optical absorption was determined at the wavelength of 540 nm.

3T3-L1 cells [3] = test: Increase of intracellular calcium concentration (Calcium Green fluorescence); format: cell-based, mice; settings: 67 μM stated for the reference substances, for 10 minutes
Protocol: 3T3-L1 cells were cultivated in DMEM medium with addition of 10% fetal calf serum (FCS), 4 mM of L-glutamine, 100 U/ml of penicillin, 100 μg/ml of streptomycin, 2.5 μg/ml of amphotericin B. Cells were cultured in the atmosphere of 5% CO2, 95% humidity at 37° C. Cell density at the time of experiment was 7000 per well of a 96-well plate, Calcium Green dye (1.5 mM, loading in 0.4% Pluronic F-62 in incubation medium without BSA for 1 hour at 37° C., triple washing of 200 μl of incubation medium after loading), incubation medium: Hanks' solution, 1 g/l of D-glucose, 1 mg/ml of fat-free BSA, introduction of substances in ethanol (<0.5% final concentration), incubation at 25° C., detecting at the excitation wavelength 485 nm, emission wavelength 535 nm.

normotensive rabbits = test: Reducing intraocular pressure after instillation in normotensive rabbits; format: in vivo, chinchilla rabbits; settings: for IOP reduction: single instillation of 2 drops into both eyes, maximum value of 5 animals' average data within 6 hours
Protocol: The study was performed on chinchilla rabbits with a mass of 2.5-3 kg. IOP was measured by automatic manual veterinary tonometer Tonovet (Icare, Finland).
2 groups of rabbets were used for testing each sample:
5 animals instilled with a single dose of sample into both eyes.
5 animals instilled with a single dose of normal saline into both eyes.
All test samples were instilled by 2 drops by a disposable pipette. IOP was measured before instillation and further, every hour within 6 hours. All tested substances were capable of reducing intraocular pressure in normotensive rabbits.

[4] = Cytotoxicity, MTT assay of cell survival; format: cell-based; settings: mouse, cultivated mice 3T3-L1 cells, 24 hours incubation
Protocol: as §1, §2, §3

For “Prostaglandin F2α Amide with L-Nitroserine [Compound 1]”, the EC50 (3T3-L1 cells [1]) was 226.4 ± 2 µM and the “NO generation, % to control” value (3T3-L1 cells [2]) was 7%.

For CCCCC[C@H](O)/C=C/[C@@H]1[C@@H](C/C=C\CCCC(=O)NCCO)[C@@H](O)C[C@H]1O [prostamide F2, prostaglandin F2α ethanolamide], the “calcium sensor fluorescence increase relative to control” value (3T3-L1 cells [3]) was 185 AU.

In the case of “Prostaglandin F2α Amide with γ-Aminobutyric Acid Nitroethanolamide [Compound 8]”, the IOP reduction (normotensive rabbits) is reported as 2.00 mm Hg and the “NO generation, % to control” value (3T3-L1 cells [2]) is reported as 22%.

For “Prostaglandin F2α Amide with L-Nitroserine Isopropyl Ether [Compound 5]”, the EC50 (3T3-L1 cells [1]) was 195 ± 2 µM and the IOP reduction (normotensive rabbits) was 1.20 mm Hg.

In the case of CCCCCC(O)C=CC1C(O)CC(O)C1CC=CCCCC(=O)NC(CO)C(=O)O [Compound 2, Prostaglandin F2α Amide with L-Serine], the EC50 (3T3-L1 cells [1]) is reported as over 200 µM and the “NO generation, % to control” value (3T3-L1 cells [2]) is reported as 25%.

With CCCCC[C@H](O)/C=C/[C@@H]1[C@@H](C/C=C\CCCC(=O)NC2CC2)[C@@H](O)C[C@H]1O [Compound 6, Prostaglandin F2α Amide with Cyclopropylamine] the EC50 (3T3-L1 cells [1]) was 124 ± 2 µM, the “ability to reduce intraocular pressure (in words)” value (normotensive rabbits) was “more prominent” and the IOP reduction (normotensive rabbits) was 3.30 mm Hg. The “NO generation, % to control” value (3T3-L1 cells [2]) was 5%.

With prostaglandin F2α the “calcium sensor fluorescence increase relative to control” value (3T3-L1 cells [3]) was 195 AU.

In the case of CCCCCC(O)C=CC1C(O)CC(O)C1CC=CCCCC(=O)N1CCCC1CO [Compound 7, Prostaglandin F2a Amide with L-Prolinol], the EC50 (3T3-L1 cells [1]) is reported as 104 ± 2 µM and the “NO generation, % to control” value (3T3-L1 cells [2]) is reported as 15%.

For “Prostaglandin F2α Amide with L-Serine Isopropyl Ether [Compound 3]”, the EC50 (3T3-L1 cells [1]) was 144 ± 3 µM, the “ability to reduce intraocular pressure (in words)” value (normotensive rabbits) was “more prominent” and the IOP reduction (normotensive rabbits) was 3.20 mm Hg. For the same compound, the “calcium sensor fluorescence increase relative to control” value (3T3-L1 cells [3]) was 405 AU, the “nitric oxide level increase relative to control” value (3T3-L1 cells [2]; 3T3-L1 cells, 25 μM) was 60% and the “concentration of maximum activity (most effective concentration) for induction of nitrogen oxide generation” value (3T3-L1 cells [2]; 3T3-L1 cells, tested 25 to 100 μM) was 25 µM. For the same compound, the “NO generation, % to control” value (3T3-L1 cells [2]) was 15%.

In the case of CCCCC[C@H](O)/C=C/[C@@H]1[C@@H](C/C=C\CCCC(=O)NCCOC(=O)NCCO[N+](=O)[O-])[C@@H](O)C[C@H]1O [Compound 11, Prostaglandin F2α Amide with 2-Aminoethyl-[2-(Nitroxy)Ethyl]Carbamate], the EC50 at 24 h [4] is reported as 184 ± 3 µM, the IOP reduction (normotensive rabbits) is reported as 1.50 mm Hg and the “NO generation, % to control” value (3T3-L1 cells [2]) is reported as 28%.
